System: HIV
Experiment: MT4 assay (anti-HIV activity)
Type: cell-based
Details: HTLV-1 transformed cell line MT-4; luciferase activity measured 96 hours later (cell titer glo); 10 point dose response
Procedure: Antiviral HIV activity and cytotoxicity values for compounds of the invention from Table 1 were measured in parallel in the HTLV-1 transformed cell line MT-4 based on the method previously described (Hazen et al., 2007, In vitro antiviral activity of the novel, tyrosyl-based human immunodeficiency virus (HIV) type 1 protease inhibitor brecanavir (GW640385) in combination with other antiretrovirals and against a panel of protease inhibitor-resistant HIV (Hazen et al., “In vitro antiviral activity of the novel, tyrosyl-based human immunodeficiency virus (HIV) type 1 protease inhibitor brecanavir (GW640385) in combination with other antiretrovirals and against a panel of protease inhibitor-resistant HIV”, Antimicrob. Agents Chemother. 2007, 51: 3147-3154; and Pauwels et al., “Sensitive and rapid assay on MT-4 cells for the detection of antiviral compounds against the AIDS virus”, J. of Virological Methods 1987, 16: 171-185).
Luciferase activity was measured 96 hours later by adding a cell titer glo (Promega, Madison, Wis.). Percent inhibition of cell protection data was plotted relative to no compound control. Under the same condition, cytotoxicity of the compounds was determined using cell titer Glo™ (Promega, Madison, Wis.). IC50 s were determined from a 10 point dose response curve using 3-4-fold serial dilution for each compound, which spans a concentration range >1000 fold.
These values are plotted against the molar compound concentrations using the standard four parameter logistic equation:
y=((Vmax*x̂n)/(K̂n+x̂n))+Y2
Y2=minimum y n=slope factor
Vmax=maximum y x=compound concentration [M]

SMILES	IC50 [nM]
Cc1c(-c2c([C@H](OC(C)(C)C)C(=O)O)c(C(F)(F)F)c3c(c2C(F)(F)F)CN(C(=O)c2cccc(F)c2)C3)cc(F)c2c1CCCO2 (atropisomer, axis not shown; (M)) [Example 4, (2S)(M)-2-(tert-butoxy)-2-(6-(8-fluoro-5-methylchroman-6-yl)-2-(3-fluorobenzoyl)-4,7-bisarifluoromethasoindolin-5-yl)acetic Acid]	4
Cc1ccc(-c2c([C@H](OC(C)(C)C)C(=O)O)c(C(F)(F)F)c3c(c2C(F)(F)F)CN(C(=O)c2cccc(F)c2)C3)cc1 [Example 3]	5
CCO[C@H](C(=O)O)c1c(C)c2c(c(C)c1-c1cc(F)c3c(c1C)CCCO3)CN(C(=O)c1cccc(F)c1)C2 (atropisomer, axis not shown; (M)) [Example 1, (2S)(M)-2-ethoxy-2-((R)-6-(8-fluoro-5-methylchroman-6-yl)-2-(3-fluorobenzoyl)-4,7-dimethylisoindolin-5-yl)acetic Acid]	145
Cc1ccc(-c2c([C@H](OC(C)(C)C)C(=O)O)c(C(F)(F)F)c3c(c2C(F)(F)F)CN(C(=O)OCc2ccccc2)C3)cc1 [Example 2, (S)-2-(2-((benzyloxy)carbonyI)-6-(p-tolyl)-4,7-bis(trifluoromethyl)isoindolin-5-yl)-2-(tert-butoxy)acetic Acid]	4400

— US20180334453A1, “ISOINDOLINE DERIVATIVES” (VIIV HEALTHCARE UK LIMITED, priority 2015, published 2018)
